According to patent US6436630B1, “Method for testing the toxicity of chemical substances using gastropods” (priority 1998, dated 2002):
Where a name gives a salt, the structure may show the parent alone.

Experiments:
[1] = test system: foot mucosa of slugs of the species Arion; test: Slug mucosal toxicity test of local anaesthetics, Example 4; type: in vivo
Description: The following local anaesthetics were used as test substance: procaine HCl, lidocaine HCl, prilocaine HCl, tetracaine HCl and bupivacaine HCl. All test substances were prepared in PBS (pH 7.4) at 1% w/v concentrations. The slugs were daily incubate during 15 min with the test solution during five days. After the incubation period the slugs were placed on 1 ml PBS in a petri dish. The PBS was sampled every hour and refreshed with 1 ml PBS for 3 hours after the treatment.
The total protein released into the PBS was determined.

[2] = test system: foot mucosa of slugs (species Arion); test: Slug mucosal toxicity test, Example 1 (15 min daily treatment, five days); type: in vivo; conditions: for % WL, reduction in weight (weight loss) caused by the 15 minute treatment as % of initial body weight of the day / % MP, mucus production as % of the body weight at the start of the day before the treatment: 1% w/v in PBS; for % MP, mucus production as % of the body weight at the start of the day before the treatment / ALP released into PBS / LDH released into PBS / Protein released into PBS: 15 min; for ALP released into PBS / LDH released into PBS / Protein released into PBS: total mean of 7 samples/day per slug
Source text: Initially, the slugs are kept on a culture under controlled conditions of temperature and humidity until they have reached a stable body weight. The purpose of achieving a stable body weight is to improve the reproducibility of the results, particularly as the release of substances from the slugs may conveniently be measured in terms of the body weight thereof. The slugs are then isolated from the culture and placed in a vented plastic box lined with moist paper towel and placed at 95% relative humidity at 20° C. seven days before the start of an experiment. The slugs were not bred in any particular way, i.e. they were wild slugs. It is anticipated that even more accurate and reproducible results can be obtained by selective breeding of the slugs, although as shown by the test results this is not a necessary requirement of the present invention to obtain accurate and useful data.
The test procedure is simple and rapid. The chemical substance to be tested is applied directly to the mucosal membrane of a slug, e.g. to the foot, by placing the slug individually in a petri dish containing the test substance. Slugs treated with phosphate buffered saline are used as a negative control. As a positive control slugs treated with a known toxic substance, benzalkonium chloride, were used.
Because the mucosal epithelium of interest is located at the outside of the slug the effect of substances can be easily observed. […] This can also be simply measured by weighing the petri dish before and after the treatment of the slugs with the chemical substance (with the slugs removed in each case). Additionally an indirect response to epithelial damage caused by a chemical substance may be determined by the reduction of the body weight of the slugs due to the leakage of haemolymphatic fluids through the damaged foot surface.
After the treatment the slugs are transferred individually to a fresh petri dish containing phosphate buffered saline. After a suitable exposure time, e.g. 1 hour the phosphate buffered saline is collected and analysed for the presence of proteins and/or enzymes, e.g. lactate dehydrogenase and/or alkaline phosphatase, or other marker substances released from the foot or epithelium of the slug, for example membrane associated components such as phospholipids or cholesterol. This procedure can be repeated after periods of several hours in order to determine the reversibility of the cell damage caused by the test chemical substance. The concentration or amount of the chemical substance to be tested can be changed and the influence of the concentration can be easily examined. The exposure time can also be changed if required. The slugs can be treated during several successive days in order to investigate the subchronical effect of substances on the foot mucosa.
Seven days before the start of the experiment the slugs were isolated in a plastic box lined with moist paper towel and placed at 95% relative humidity at 20° C. As test substances didecanyol-L-α-phosphatidylcholine (DDPC) and sodium deoxycholate (SDC) were selected. Benzalkonium chloride (1% w/v), SDC (1% w/v) and DDPC (1%, w/v) were prepared in phosphate buffered saline (PBS, pH 7.4). […] During the test the slugs are preferably kept in a generally calm and normal state and are not subjected to mechanical vibrations or mechanical or electrical disturbances which may affect mucus production.
The enzymes (lactate dehydrogenase (LDH) and alkaline phosphatase (ALP)) and total protein released into the PBS were determined. The slugs were weighed before and after the incubation period to determine the body weight changes. The mucus production was measured by weighing the petri dishes before and after the treatment with a test substance. The results are shown in Table 1 and shown graphically in FIGS. 1 to 5.

[3] = 1% w/v, 15 min daily, five days

SMILES: CCCCN1CCCCC1C(=O)Nc1c(C)cccc1C (centres unmarked) [Bupivacaine HCl, bupivacaine HCl]
- % MP, mucus production as % of the body weight at the start of the day before the treatment ([1]; Arion (slug), in vivo, 1 day): 7.24%
- Total protein release into PBS ([1]; Arion (slug), in vivo, 1 day): 755 µg/mL
- % MP, mucus production as % of the body weight at the start of the day before the treatment ([1]; Arion (slug), in vivo, 2 day): 5.22%
- Total protein release into PBS ([1]; Arion (slug), in vivo, 2 day): 464 µg/mL
- % MP, mucus production as % of the body weight at the start of the day before the treatment ([1]; Arion (slug), in vivo, 3 day): 2.74%
- Total protein release into PBS ([1]; Arion (slug), in vivo, 3 day): 277 µg/mL
- % MP, mucus production as % of the body weight at the start of the day before the treatment ([1]; Arion (slug), in vivo, 4 day): 1.64%
- Total protein release into PBS ([1]; Arion (slug), in vivo, 4 day): 159 µg/mL
- % MP, mucus production as % of the body weight at the start of the day before the treatment ([1]; Arion (slug), in vivo, 5 day): 1.34%
- Total protein release into PBS ([1]; Arion (slug), in vivo, 5 day): 313 µg/mL
- mucus production (in words) ([1]; in vivo): increased mucus production
- protein release (in words) ([1]; in vivo): increased protein release

SMILES: CCCCCCCCCC(=O)OC[C@H](COP(=O)([O-])OCC[N+](C)(C)C)OC(=O)CCCCCCCCC [DDPC, didecanyol-L-α-phosphatidylcholine]
- membrane damage (in words) [2, 3]: little or no damage
- % WL, reduction in weight (weight loss) caused by the 15 minute treatment as % of initial body weight of the day ([2]; day 1): 4.84%
- % MP, mucus production as % of the body weight at the start of the day before the treatment ([2]; day 1): 0.2%
- ALP released into PBS ([2]; day 1, 1% w/v): 9.43 U/L
- LDH released into PBS ([2]; day 1, 1% w/v): 9.51 U/L
- Protein released into PBS ([2]; day 1, 1% w/v): 12.43 μg/30 μL
- % WL, reduction in weight (weight loss) caused by the 15 minute treatment as % of initial body weight of the day ([2]; day 2): 1.19%
- % MP, mucus production as % of the body weight at the start of the day before the treatment ([2]; day 2): 0%
- ALP released into PBS ([2]; day 2, 1% w/v): 21.83 U/L
- LDH released into PBS ([2]; day 2, 1% w/v): 14.47 U/L
- Protein released into PBS ([2]; day 2, 1% w/v): 3.77 μg/30 μL
- % WL, reduction in weight (weight loss) caused by the 15 minute treatment as % of initial body weight of the day ([2]; day 3): 1.15%
- % MP, mucus production as % of the body weight at the start of the day before the treatment ([2]; day 3): 0%
- ALP released into PBS ([2]; day 3, 1% w/v): 13.82 U/L
- LDH released into PBS ([2]; day 3, 1% w/v): 23.36 U/L
- Protein released into PBS ([2]; day 3, 1% w/v): 6.41 μg/30 μL
- % WL, reduction in weight (weight loss) caused by the 15 minute treatment as % of initial body weight of the day ([2]; day 4): 1.39%
- % MP, mucus production as % of the body weight at the start of the day before the treatment ([2]; day 4): 0%
- ALP released into PBS ([2]; day 4, 1% w/v): 4.55 U/L
- LDH released into PBS ([2]; day 4, 1% w/v): 19.07 U/L
- Protein released into PBS ([2]; day 4, 1% w/v): 4.98 μg/30 μL
- % WL, reduction in weight (weight loss) caused by the 15 minute treatment as % of initial body weight of the day ([2]; day 5): 1.14%
- % MP, mucus production as % of the body weight at the start of the day before the treatment ([2]; day 5): 0%
- ALP released into PBS ([2]; day 5, 1% w/v): 12.42 U/L
- LDH released into PBS ([2]; day 5, 1% w/v): 28.32 U/L
- Protein released into PBS ([2]; day 5, 1% w/v): 2.40 μg/30 μL

SMILES: CCCNC(C)C(=O)Nc1ccccc1C (centres unmarked) [Prilocaine HCl, prilocaine HCl]
- % MP, mucus production as % of the body weight at the start of the day before the treatment ([1]; Arion (slug), in vivo, 1 day): 0%
- Total protein release into PBS ([1]; Arion (slug), in vivo, 1 day): 139 µg/mL
- % MP, mucus production as % of the body weight at the start of the day before the treatment ([1]; Arion (slug), in vivo, 2 day): 0%
- Total protein release into PBS ([1]; Arion (slug), in vivo, 2 day): 62 µg/mL
- % MP, mucus production as % of the body weight at the start of the day before the treatment ([1]; Arion (slug), in vivo, 3 day): 0%
- Total protein release into PBS ([1]; Arion (slug), in vivo, 3 day): 72 µg/mL
- % MP, mucus production as % of the body weight at the start of the day before the treatment ([1]; Arion (slug), in vivo, 4 day): 0%
- Total protein release into PBS ([1]; Arion (slug), in vivo, 4 day): 65 µg/mL
- % MP, mucus production as % of the body weight at the start of the day before the treatment ([1]; Arion (slug), in vivo, 5 day): 0%
- Total protein release into PBS ([1]; Arion (slug), in vivo, 5 day): 82 µg/mL

SMILES: CCN(CC)CC(=O)Nc1c(C)cccc1C [Lidocaine HCl, lidocaine HCl]
- damage (in words) [1, 3]: little or no damage
- % MP, mucus production as % of the body weight at the start of the day before the treatment ([1]; day 1, 1% w/v in PBS, 15 min): 0%
- % MP, mucus production as % of the body weight at the start of the day before the treatment ([1]; day 2, 1% w/v in PBS, 15 min): 0%
- % MP, mucus production as % of the body weight at the start of the day before the treatment ([1]; day 3, 1% w/v in PBS, 15 min): 0%
- % MP, mucus production as % of the body weight at the start of the day before the treatment ([1]; day 4, 1% w/v in PBS, 15 min): 0%
- % MP, mucus production as % of the body weight at the start of the day before the treatment ([1]; day 5, 1% w/v in PBS, 15 min): 0%

SMILES: CCN(CC)CCOC(=O)c1ccc(N)cc1 [Procaine HCl, procaine HCl]
- % MP, mucus production as % of the body weight at the start of the day before the treatment ([1]; Arion (slug), in vivo, 1 day): 0%
- Total protein release into PBS ([1]; Arion (slug), in vivo, 1 day): 204 µg/mL
- % MP, mucus production as % of the body weight at the start of the day before the treatment ([1]; Arion (slug), in vivo, 2 day): 0%
- Total protein release into PBS ([1]; Arion (slug), in vivo, 2 day): 62 µg/mL
- % MP, mucus production as % of the body weight at the start of the day before the treatment ([1]; Arion (slug), in vivo, 3 day): 0%
- Total protein release into PBS ([1]; Arion (slug), in vivo, 3 day): 92 µg/mL
- % MP, mucus production as % of the body weight at the start of the day before the treatment ([1]; Arion (slug), in vivo, 4 day): 0%
- Total protein release into PBS ([1]; Arion (slug), in vivo, 4 day): 54 µg/mL
- % MP, mucus production as % of the body weight at the start of the day before the treatment ([1]; Arion (slug), in vivo, 5 day): 0%
- Total protein release into PBS ([1]; Arion (slug), in vivo, 5 day): 70 µg/mL
- damage (in words) ([1]; in vivo): little or no damage

SMILES: CCCCNc1ccc(C(=O)OCCN(C)C)cc1 [Tetracaine HCl, tetracaine HCl]
- % MP, mucus production as % of the body weight at the start of the day before the treatment ([1]; Arion (slug), in vivo, 1 day): 3.45%
- Total protein release into PBS ([1]; Arion (slug), in vivo, 1 day): 413 µg/mL
- % MP, mucus production as % of the body weight at the start of the day before the treatment ([1]; Arion (slug), in vivo, 2 day): 2.48%
- Total protein release into PBS ([1]; Arion (slug), in vivo, 2 day): 130 µg/mL
- % MP, mucus production as % of the body weight at the start of the day before the treatment ([1]; Arion (slug), in vivo, 3 day): 1.15%
- Total protein release into PBS ([1]; Arion (slug), in vivo, 3 day): 120 µg/mL
- % MP, mucus production as % of the body weight at the start of the day before the treatment ([1]; Arion (slug), in vivo, 4 day): 1.29%
- Total protein release into PBS ([1]; Arion (slug), in vivo, 4 day): 128 µg/mL
- % MP, mucus production as % of the body weight at the start of the day before the treatment ([1]; Arion (slug), in vivo, 5 day): 0.65%
- Total protein release into PBS ([1]; Arion (slug), in vivo, 5 day): 149 µg/mL
- mucus production (in words) ([1]; in vivo): increased mucus production
- protein release (in words) ([1]; in vivo): increased protein release
